# “Also recorded” adds a separate entry of the source.
# What was measured:
# [1] = tested on: β-galactosidase from jack beans; experiment: Inhibition of β-galactosidase cleavage of Galβ4GlcNAcβ3Galβ4Glc; format: biochemical; conditions: 55 mM inhibitor, 100 mU enzyme, 50 mM sodium citrate pH 4.0, 37° C., 8 h; no unreacted substrate without inhibitor
# From the text: Inhibition of β-galactosidase enzyme by D-galactono-1,4-lactone (Sigma, St Louis, USA). β-galactosidase from jack beans (EC 3.2.1.23, Sigma, St Louis, USA) is used to cleave terminal galactose from model oligosaccharide Galβ4GlcNAcβ3Galβ4Glc (Sigma, St Louis, USA). It is noted that the transition state analog galactosidase inhibitor is active against many galactosidases (Huber and Brockbank, 1987, actual active form is probably D-galactono-1,5-lactone) and that the jack bean β-galactosidase cleaves similarily other type 2 lactosamines such as e.g. Galβ4GlcNAcβ3Galβ4GlcNAcβ3Galβ4Glc, specific conditions are needed to cleave Galβ3GlcNAc-sequences or glycospingolipids. In Reaction 1, 25 nmol of Galβ4GlcNAcβ3Galβ4Glc is incubated with 100 mU of β-galactosidase from jack beans in-45 μl of 50 mM sodium citrate pH 4.0, at 37° C., for 8 h. Reaction 2 has the same composition, but contains additionally 55 mM D-galactono-1,4-lactone and it is incubated under the same condition for 8 h. The major products from Reaction 1 are Gal and GlcNAcβ3Galβ4Glc, while unreacted substrate is generally not observable by HPLC and mass spectrometric analysis, while Reaction 2 contains besides these typically more than 50% of uncleaved Galβ4GlcNAcβ3Galβ4Glc.
# Helicobacter pylori [2] = experiment: TLC bacterial overlay assay: binding of 35S-labeled Helicobacter pylori to glycosphingolipids; conditions: for Helicobacter pylori binding activity (in words): TLC overlay; for binding frequency for Helicobacter pylori: strain 032, total number of plates about 100; for binding compared between Helicobacter pylori strains: strains 17875, 002 and 032
# [3] = biological target: T1, sialidase from Vibrio cholerae (Vibrio cholerae serotype O1, UniProt P0C6E9); experiment: Inhibition of sialidase cleavage of Neu5Acα3Galβ4Glc; format: biochemical; conditions: saturating concentrations
# T1 construct: purchased Behringwerke, Marburg, Germany
# Helicobacter pylori [4] = conditions: human gastrointestinal cell lines (Simon et al., 1999); cited from earlier work
# Helicobacter pylori [5] = conditions: rhesus monkey (Mysore et al., 2000); cited from earlier work
# [6] = dilution series, semi-quantitative TLC overlay
# T1 sequence (P0C6E9 25-781): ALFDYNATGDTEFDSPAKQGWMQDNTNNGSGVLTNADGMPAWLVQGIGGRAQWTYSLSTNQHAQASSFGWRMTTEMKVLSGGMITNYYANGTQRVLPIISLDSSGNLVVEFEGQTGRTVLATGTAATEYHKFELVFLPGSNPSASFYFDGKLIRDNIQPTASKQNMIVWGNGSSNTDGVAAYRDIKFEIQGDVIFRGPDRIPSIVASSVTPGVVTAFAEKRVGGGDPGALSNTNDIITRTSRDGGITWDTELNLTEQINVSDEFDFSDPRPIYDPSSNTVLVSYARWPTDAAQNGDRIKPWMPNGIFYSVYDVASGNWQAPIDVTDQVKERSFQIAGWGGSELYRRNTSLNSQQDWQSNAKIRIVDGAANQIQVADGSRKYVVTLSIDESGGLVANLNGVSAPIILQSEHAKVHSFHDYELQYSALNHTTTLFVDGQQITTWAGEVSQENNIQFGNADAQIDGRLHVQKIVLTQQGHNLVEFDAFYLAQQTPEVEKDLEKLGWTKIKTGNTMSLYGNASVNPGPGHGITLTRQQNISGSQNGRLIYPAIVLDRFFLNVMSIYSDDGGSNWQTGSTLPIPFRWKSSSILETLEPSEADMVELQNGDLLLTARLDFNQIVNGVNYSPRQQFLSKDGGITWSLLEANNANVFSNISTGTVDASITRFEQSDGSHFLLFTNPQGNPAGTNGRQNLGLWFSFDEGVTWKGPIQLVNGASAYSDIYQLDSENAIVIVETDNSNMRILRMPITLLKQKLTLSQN
Compound,Helicobacter pylori binding activity (in words) (Helicobacter pylori [2]),other results
"O=C1O[C@@H]([C@H](O)CO)[C@H](O)[C@H]1O [D-galactono-1,4-lactone]",–,uncleaved Galβ4GlcNAcβ3Galβ4Glc [1]: more than 50%
CCCCCCCCCCCCCCCCc1ccc(NC[C@H](O)[C@@H](O)[C@H](O[C@@H]2O[C@H](CO)[C@H](O)[C@H](O[C@@H]3O[C@H](CO)[C@@H](O[C@@H]4O[C@H](CO)[C@H](O)[C@H](O[C@@H]5O[C@H](CO)[C@@H](O)[C@H](O)[C@H]5NC(C)=O)[C@H]4O)[C@H](O)[C@H]3NC(C)=O)[C@H]2O)[C@H](O)CO)cc1 [GlcNAcβ3Galβ4GlcNAcβ3Galβ4Glc(red)-HDA],observable binding activity,–
"CC(=O)N[C@H]1[C@H]([C@H](O)[C@H](O)CO)OC(C(=O)O)=C[C@@H]1O [Neu5Ac2en, 2,3-anhydro-2-deoxy-N-acetylneuraminic acid]",–,inhibition of the enzyme (in words) [3]: very effectively inhibited
CC(=O)N[C@H]1[C@H]([C@H](O)[C@H](O)CO)O[C@@](O[C@H]2[C@@H](O)[C@@H](CO)O[C@@H](O[C@H]3[C@H](O)[C@@H](O)C(O)O[C@@H]3CO)[C@@H]2O)(C(=O)O)C[C@@H]1O (stereo partly shown) [Sialyl-lactose],–,inhibition of Helicobacter pylori binding to cell lines (Helicobacter pylori [4]): inhibits Helicobacter pylori binding; efficacy in animal model of the infection (Helicobacter pylori [5]): effective
Fucα2Galβ4GlcNAcβ3Galβ4Glcβ1Cer [No. 18],absence of binding,–
GalNAcα3(Fucα2)Galβ4GlcNAcβ3Galβ4Glcβ1Cer [No. 22],non-binding,–
GalNAcβ3Galα3Galβ4GlcNAcβ3Galβ4Glcβ1Cer [No. 25],non-binding,–
GalNAcβ3Galβ4GlcNAcβ3Galβ4Glcβ1Cer [No. 11],binding was also found,–
Galα3(Fucα2)Galβ4GlcNAcβ3Galβ4Glcβ1Cer [No. 23],non-binding,–
Galα3Galβ4GlcNAcβ3Galβ4Glcβ1Cer [No. 13],binding-active,–
Galα4Galβ4GlcNAcβ3Galβ4Glcβ1Cer [No. 15],absence of binding,–
Galβ4GlcNAcβ3Galβ4GlcNAcβ3Galβ4Glcβ1Cer [No. 21],displayed binding activity,amount in which glycolipid bound Helicobacter pylori (Helicobacter pylori [2]; [6]): ~0.2 nmoles of glycolipid/spot; binding frequency for Helicobacter pylori (Helicobacter pylori [2]): ~90%; binding compared between Helicobacter pylori strains (Helicobacter pylori [2]): similar
Galβ4GlcNAcβ3Galβ4Glcβ1Cer [No. 5],displayed binding activity,amount in which glycolipid bound Helicobacter pylori (Helicobacter pylori [2]; [6]): ~0.3 nmoles of glycolipid/spot; binding compared between Helicobacter pylori strains (Helicobacter pylori [2]): similar
Galβ4GlcβCer [diglycosylceramide],displayed binding activity,–
GlcNAcβ3Galβ4GlcNAcβ3Galβ4Glcβ1Cer [No. 10],–,"Helicobacter pylori binding activity (in words) (Helicobacter pylori [2]; listed as pentaglycosylceramide): strong activity; also recorded: displayed binding activity; also recorded: highly active; amount giving a positive response on TLC plates (Helicobacter pylori [2]; dilution series, semi-quantitative TLC overlay, mean value from 7 experiments): 0.039 nmol/spot; binding frequency for Helicobacter pylori (Helicobacter pylori [2]): ~90%; binding compared between Helicobacter pylori strains (Helicobacter pylori [2]): similar"
GlcNAcβ3Galβ4Glcβ1Cer [No. 1],inactive,–
NeuAcα3GalNAcβ3Galβ4GlcNAcβ3Galβ4Glcβ1Cer [No. 24],non-binding,–
NeuGcα3Galβ4GlcNAcβ3Galβ4GlcNAcβ3Galβ4Glcβ1Cer [No. 27],–,binding by Helicobacter pylori isolates (Helicobacter pylori [2]; about 60 isolates tested): bound by most Helicobacter pylori isolates
"maltoheptaose(red)-HDA [maltoheptaose/red)-HDA, reference compound]",totally inactive,–

# Source: patent US20040176320A1, “Use of at least one glycoinhibitor substance” (priority 2001, published 2004)
